# According to patent US8846690B2, “Heterocyclic carboxylic acid derivatives having a 2,5-substituted oxazolopyrimidine ring” (Sanofi, priority 2010, dated 2014):
# Target: T1, human Edg-1 receptor (Homo sapiens, UniProt P21453)
# T1 construct: FLAG (N); expressed in transfected cells; membrane preparation
# Assay: GTP-γ-S assay using human Edg-1 receptors (scintillation proximity assay, CHO Flp-In membrane preparation)
# Assay type: biochemical
# Details: test compound 10 μM; high control 10 μM S1P regarded as 100% activation; background-corrected; triplicate
# Description: Determination of the Pharmacological Activity A) GTP-γ-S Assay Using Human Edg-1 Receptors
# In order to determine the Edg-1 receptor activation by the compounds of the invention, a GTP-γ-S (guanosine 5′-[y-thio]triphosphate) assay for G-protein coupled receptor binding based on the scintillation proximity assay principle was used, employing a cell membrane preparation from a CHO Flp-In cell line which constitutively overexpresses the human Edg-1 receptor.
# A membrane preparation was obtained by standard methods from the afore-described CHO Flp-In cell line constitutively overexpressing the human Edg-1 receptor. Briefly, the cryopreserved cells were taken in culture and grown until confluency in T175 cell culture flasks (Becton Dickinson, cat. no. 35 5001). Cell culture was stopped by washing with calcium-free phosphate-buffered saline (PBS; Gibco, cat. no. 14190), and cells were harvested with a rubber-policeman in 4° C. cold and calcium-free PBS supplemented with a protease inhibitor cocktail (complete protease inhibitor; Roche, cat. no. 1697498; 1 tablet per 50 ml) and subsequently centrifuged at 4° C. for 15 min at 1100×g (Heraeus Minifuge T). For cell lysis, the pellet was resuspended in a 4° C. cold hypotonic buffer consisting of 5 mM HEPES (Sigma-Aldrich, cat. no. H-0981), 1 mM EDTA (disodium salt; Merck, cat. No. 8418) supplemented with protease inhibitor cocktail (as above) in which cells were stored for another 15 min on ice. After lysis, cells were centrifuged at 4° C. for 10 min at 400×g (Heraeus Minifuge T). The pellet was disrupted in a Dounce homogenizer, diluted with the supernatant of the previous centrifugation and subsequently centrifuged at 4° C. for 10 min at 500×g (Heraeus Minifuge T) in order to separate nuclei and still intact cells from the membranes mainly present in the supernatant. The supernatant was then diluted in hypotonic buffer and centrifuged (Beckmann, Avanti J251) at approximately 18600×g for 2 h at 4° C. […] Protein concentration of the membrane preparation was determined in a sample by means of a commercial protein assay (Bio-Rad, DC Protein Assay, cat. nos. 500-0113, 500-0114, 500-0115).
# The Edg-1 membrane preparation obtained in (b) was employed in a commercially available scintillation proximity assay (SPA) kit for G-protein coupled receptor binding from Amersham Biosciences/GE Healthcare (code RPNQ0210), in which ligand-induced binding of ^35S-radiolabled GTP-γ-S to the receptor-containing membrane, which is bound to scintillation beads, stimulates the emission of light and allows to quantify the in vitro activity of the Edg-1 agonistic compound. […]
# T1 sequence (P21453 whole entry): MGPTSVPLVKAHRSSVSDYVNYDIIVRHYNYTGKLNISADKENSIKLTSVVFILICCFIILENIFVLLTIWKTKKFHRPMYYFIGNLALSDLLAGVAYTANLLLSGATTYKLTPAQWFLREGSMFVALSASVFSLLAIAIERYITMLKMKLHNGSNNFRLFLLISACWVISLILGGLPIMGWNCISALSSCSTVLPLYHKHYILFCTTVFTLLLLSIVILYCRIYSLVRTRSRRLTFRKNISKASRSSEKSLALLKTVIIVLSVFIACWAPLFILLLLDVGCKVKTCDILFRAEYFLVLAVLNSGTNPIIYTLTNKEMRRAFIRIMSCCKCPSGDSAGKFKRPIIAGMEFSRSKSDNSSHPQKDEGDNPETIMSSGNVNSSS
row,Edg-1 receptor activation in percent of the activation by 10 μM S1P (% Activation) [%],SMILES
1,115,"Cc1cc(-c2nc3cnc(Oc4ccccc4F)nc3o2)cc(C)c1OCC(=O)N1CCC[C@H]1C(=O)O [Example 1, (S)-1-(2-{4-[5-(2-Fluoro-phenoxy)-oxazolo[5,4-d]pyrimidin-2-yl]-2,6-dimethyl-phenoxy}-acetyl)-pyrrolidine-2-carboxylic acid]"
2,93,"Cc1cc(-c2nc3cnc(Oc4ccccc4F)nc3o2)cc(C)c1OC(C)C(=O)N1CCC[C@H]1C(=O)O (stereo partly drawn) [Example 2, (S)-1-(2-{4-[5-(2-Fluoro-phenoxy)-oxazolo[5,4-d]pyrimidin-2-yl]-2,6-dimethyl-phenoxy}-propionyl)-pyrrolidine-2-carboxylic acid]"
3,82,"O=C(O)[C@@H]1CCCN1C(=O)/C=C/c1ccc(-c2nc3cnc(Oc4ccccc4F)nc3o2)cc1 [Example 3, (S)-1-((E)-3-{4-[5-(2-Fluoro-phenoxy)-oxazolo[5,4-d]pyrimidin-2-yl]-phenyl}-acryloyl)-pyrrolidine-2-carboxylic acid]"
4,103,"O=C(O)[C@@H]1CCCN1C(=O)CCc1ccc(-c2nc3cnc(Oc4ccccc4F)nc3o2)cc1 [Example 4, (S)-1-(3-{4-[5-(2-Fluoro-phenoxy)-oxazolo[5,4-d]pyrimidin-2-yl]-phenyl}-propionyl)-pyrrolidine-2-carboxyl is acid]"
